From ChEMBL document CHEMBL5505954, “Design, synthesis and biological evaluation of the positional isomers of the galactose conjugates able to target hepatocellular carcinoma cells via ASGPR-mediated cellular uptake and cytotoxicity” (Eur J Med Chem, 2024)
One block for each molecule: values may come before it. Active and inactive are the calls of the source. No cut-off for these calls is given here.

Tests used:
HepG2 [1] = assay: Competitive binding affinity to ASGPR in human HepG2 cells assessed as reduction in drug uptake pretreated for 0.5 hrs followed by 2-(-5-(-3,3-dimethyl-1-(6-oxo-6-((5-(((2R,3R,4S,5R)-3,4,5,6-tetrahydroxytetrahydro-2H-pyran-2-yl)methoxy)pentyl)amino)hexyl)-5-sulfoindolin-2-ylidene)penta-1,3-dien-1-yl …; assay type: cell-based; details: time 4.5 hrs
Bel-7402 = assay: Cytotoxicity against human Bel-7402 cells assessed as inhibition of cell growth incubated for 48 hrs by CCK-8 assay; assay type: functional, cell-based; details: Bel-7402, 48 h
A549 = assay: Cytotoxicity against human A549 cells assessed as inhibition of cell growth incubated for 48 hrs by CCK-8 assay; assay type: functional, cell-based; details: A549, 48 h
DU-145 = assay: Cytotoxicity against human DU-145 cells assessed as inhibition of cell growth incubated for 48 hrs by CCK-8 assay; assay type: functional, cell-based; details: DU-145, 48 h
[2] = Potency index, ratio of test compound IC50 to doxorubicin IC50 for cytotoxicity against human HL7702 cells assessed as inhibition of cell growth incubated for 48 hrs by CCK-8 assay; assay type: toxicity, cell-based; details: HL7702 (L02) cells, read-out: Ratio IC50
Huh-7 = assay: Cytotoxicity against human Huh-7 cells assessed as inhibition of cell growth incubated for 48 hrs by CCK-8 assay; assay type: functional, cell-based; details: Huh-7, 48 h
HepG2 [3] = assay: Cytotoxicity against human HepG2 cells assessed as inhibition of cell growth incubated for 48 hrs by CCK-8 assay; assay type: functional, cell-based; details: HepG2, 48 h
[4] = Cytotoxicity against human HL7702 cells assessed as inhibition of cell growth incubated for 48 hrs by CCK-8 assay; assay type: toxicity, cell-based; details: HL7702 (L02) cells
[5] = Drug uptake in human A549 cells assessed as increase in fluorescence intensity at 25 uM incubated for 4 hrs by DAPI staining based confocal laser scanning microscopic analysis; assay type: ADME, cell-based; details: a549, 4 h
[6] = Drug uptake in human HepG2 cells assessed as increase in fluorescence intensity at 25 uM incubated for 4 hrs by DAPI staining based confocal laser scanning microscopic analysis; assay type: ADME, cell-based; details: hepg2, 4 h
[7] = Drug uptake in human HepG2 cells overexpressing ASGPR assessed as increase in fluorescence intensity at 25 uM incubated for 4 hrs by DAPI staining based confocal laser scanning microscopic analysis; assay type: ADME, cell-based; details: hepg2, 4 h
[8] = Drug uptake in human HepG2 cells assessed as increase in fluorescence intensity incubated for 4 hrs by DAPI staining based confocal laser scanning microscopic analysis; assay type: ADME, cell-based; details: hepg2, 4 h, dose 0-50 µM
[9] = Drug uptake in human A549 cells lacking ASGPR expression assessed as increase in fluorescence intensity at 25 uM incubated for 4 hrs by DAPI staining based confocal laser scanning microscopic analysis; assay type: ADME, cell-based; details: a549, 4 h
[10] = Drug uptake in human HepG2 cells assessed as increase in fluorescence intensity at 25 uM at 4 degreeC incubated for 4 hrs by DAPI staining based confocal laser scanning microscopic analysis; assay type: ADME, cell-based; details: hepg2, 4 h
[11] = Drug uptake in human HepG2 cells assessed as increase in fluorescence intensity at 25 uM by DAPI staining based confocal laser scanning microscopic analysis; assay type: ADME, cell-based; details: hepg2, 25 µM, TDE = time-dependent effect, time 0-4 hrs
[12] = Drug uptake in human Huh-7 cells harboring low ASGPR expression assessed as increase in fluorescence intensity at 25 uM incubated for 4 hrs by DAPI staining based confocal laser scanning microscopic analysis; assay type: ADME, cell-based; details: huh-7, 4 h
[13] = Drug uptake in human DU-145 cells lacking ASGPR expression assessed as increase in fluorescence intensity at 25 uM incubated for 4 hrs by DAPI staining based confocal laser scanning microscopic analysis; assay type: ADME, cell-based; details: du-145, 4 h
HepG2 [14] = assay: Cytotoxicity against human HepG2 cells harboring siRNA mediated ASGPR knockdown assessed as inhibition of cell growth by measuring increase in IC50 at 0.125 to 16 uM incubated for 48 hrs by CCK-8 assay; assay type: functional, cell-based; details: dose 0.125-16 µM

Structure (SMILES): CC(=O)N[C@H]1C(O)O[C@H](CO)[C@H](O)[C@@H]1O (stereo not given in full)
Activity (HepG2 [1]): Dose-Dependent Effect

Structure (SMILES): COc1cccc2c1C(=O)c1c(O)c3c(c(O)c1C2=O)C[C@@](O)(C(=O)CO)C[C@@H]3O[C@H]1C[C@H](NC(=O)CCCCCOC[C@H]2OC(O)[C@H](O)[C@@H](O)[C@H]2O)[C@H](O)[C@H](C)O1 (stereo not given in full)
IC50 (Bel-7402): > 10 µM
IC50 (A549): > 10 µM
IC50 (DU-145): 6740 nM
selectivity ratio at 48 h [2]: > 12
IC50 (Huh-7): > 10000 nM
IC50 (HepG2 [3]): > 10 µM
IC50 at 48 h [4]: > 10 µM

Drug uptake [5]: Active
Drug uptake [6]: Active
Drug uptake [7]: Active
Drug uptake [8]: Dose-Dependent Effect
Drug uptake [9]: Not Active
Drug uptake [10]: Not Active
Drug uptake [11]: Tde
Drug uptake [12]: Not Active
Drug uptake [13]: Not Active
Structure (SMILES): CC[N+]1=C(/C=C/C=C/C=C2/N(CCCCCC(=O)NCCCCCOC[C@H]3OC(O)[C@H](O)[C@@H](O)[C@H]3O)c3ccc(S(=O)(=O)O)cc3C2(C)C)C(C)(C)c2cc(S(=O)(=O)[O-])ccc21 (stereo not given in full)

Structure (SMILES): COc1cccc2c1C(=O)c1c(O)c3c(c(O)c1C2=O)C[C@@](O)(C(=O)CO)C[C@@H]3O[C@H]1C[C@H](N)[C@H](O)[C@H](C)O1 [DOXORUBICIN]
IC50 (Bel-7402): 0.43 µM
IC50 (DU-145): < 100 nM
IC50 (Huh-7): 120 nM

Structure (SMILES): OC[C@H]1OC(O)[C@H](O)[C@@H](O)[C@H]1O (stereo not given in full)
Activity (HepG2 [1]): Dose-Dependent Effect

Structure (SMILES): COc1cccc2c1C(=O)c1c(O)c3c(c(O)c1C2=O)C[C@@](O)(C(=O)CO)C[C@@H]3O[C@H]1C[C@H](NC(=O)CCCCCO[C@H]2C(O)O[C@H](CO)[C@H](O)[C@@H]2O)[C@H](O)[C@H](C)O1 (stereo not given in full)
Activity (HepG2 [14]): Active
IC50 (Bel-7402): 3.11 µM
IC50 (A549): 9.35 µM
IC50 (DU-145): 880 nM
selectivity ratio at 48 h [2]: > 12
IC50 (Huh-7): 1140 nM
IC50 (HepG2 [3]): 3.44 µM
IC50 at 48 h [4]: 9.68 µM

Drug uptake [5]: Active
Drug uptake [6]: Active
Structure (SMILES): CC[N+]1=C(/C=C/C=C/C=C2/N(CCCCCC(=O)NCCCCCO[C@H]3[C@@H](O)[C@@H](CO)OC(O)[C@@H]3O)c3ccc(S(=O)(=O)O)cc3C2(C)C)C(C)(C)c2cc(S(=O)(=O)[O-])ccc21 (stereo not given in full)

Structure (SMILES): CC[N+]1=C(/C=C/C=C/C=C2/N(CCCCCC(=O)NCCCCCO[C@H]3C(O)O[C@H](OO)[C@H](O)[C@@H]3O)c3ccc(S(=O)(=O)O)cc3C2(C)C)C(C)(C)c2cc(S(=O)(=O)[O-])ccc21 (stereo not given in full)
Drug uptake [5]: Active
Drug uptake [6]: Active

Drug uptake [5]: Active
Drug uptake [6]: Active
Structure (SMILES): CC[N+]1=C(/C=C/C=C/C=C2/N(CCCCCC(=O)NCCCCCOC3O[C@H](CO)[C@H](O)[C@H](O)[C@H]3O)c3ccc(S(=O)(=O)O)cc3C2(C)C)C(C)(C)c2cc(S(=O)(=O)[O-])ccc21 (stereo not given in full)

Structure (SMILES): COc1cccc2c1C(=O)c1c(O)c3c(c(O)c1C2=O)C[C@@](O)(C(=O)CO)C[C@@H]3O[C@H]1C[C@H](NC(=O)CCCCCO[C@@H]2O[C@H](CO)[C@H](O)[C@H](O)[C@H]2O)[C@H](O)[C@H](C)O1
Activity (HepG2 [14]): Active
IC50 (Bel-7402): 4.67 µM
IC50 (A549): > 10 µM
IC50 (DU-145): 2670 nM
selectivity ratio at 48 h [2]: > 12
IC50 (Huh-7): 1290 nM
IC50 (HepG2 [3]): 6.71 µM
IC50 at 48 h [4]: > 10 µM

Drug uptake [5]: Active
Drug uptake [6]: Active
Structure (SMILES): CC[N+]1=C(/C=C/C=C/C=C2/N(CCCCCC(=O)NCCCCCO[C@@H]3[C@H](O)[C@@H](O)C(O)O[C@@H]3CO)c3ccc(S(=O)(=O)O)cc3C2(C)C)C(C)(C)c2cc(S(=O)(=O)[O-])ccc21 (stereo not given in full)
